Laboratory results from patent US9447438B2, “Acetyl-coA carboxylases” (OPX Biotechnologies, Inc., priority 2013, dated 2016).

Columns and labels:
[1] = molecular target: E. coli ACCase (Escherichia coli, UniProt P0A9Q5+P0ABD5+P0ABD8+P24182); conditions: FIG. 4; for effect of salt on E. coli ACCase activity: compared to H. elongata ACCase; for decrease of the activity of the ACCase enzyme relative to control: salt levels near 0.44M
Method: Levels of greater than 0.66M (60 g/L) are expected to be present for commercially viable commercial production of 3-HP.
Each gene was amplified by PCRs with Pfu Ultra II HS using the manufacturer's instructions, and the PCR products were purified using the Zymo PCR Cleanup kit. Concentrations of products were measured using the Nanodrop spectophotometer. The Gibson Assembly kit (NEB) was used to construct plasmids expressing the ACCase subunit genes as directed by the manufacturer. The effect of NH4-3-HP and NH4Cl on H. elongata ACCase was tested and compared to the E. coli ACCase.

[2] = test system: H. elongata ACCase; test: Effect of NH4-3-HP and NH4Cl on H. elongata ACCase; format: biochemical, Halomonas elongata; conditions: FIG. 4; compared to E. coli ACCase
Method: Concentrations of products were measured using the Nanodrop spectophotometer.

Chain of E. coli ACCase (P0A9Q5 whole entry): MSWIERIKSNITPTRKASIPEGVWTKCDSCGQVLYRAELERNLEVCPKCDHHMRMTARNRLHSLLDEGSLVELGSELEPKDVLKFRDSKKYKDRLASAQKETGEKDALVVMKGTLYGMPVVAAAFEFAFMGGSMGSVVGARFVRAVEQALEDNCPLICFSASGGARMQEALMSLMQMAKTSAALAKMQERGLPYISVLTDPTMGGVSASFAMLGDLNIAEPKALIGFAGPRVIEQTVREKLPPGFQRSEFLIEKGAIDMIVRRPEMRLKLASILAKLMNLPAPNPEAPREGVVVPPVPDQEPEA
Chain of E. coli ACCase (P0ABD5 whole entry): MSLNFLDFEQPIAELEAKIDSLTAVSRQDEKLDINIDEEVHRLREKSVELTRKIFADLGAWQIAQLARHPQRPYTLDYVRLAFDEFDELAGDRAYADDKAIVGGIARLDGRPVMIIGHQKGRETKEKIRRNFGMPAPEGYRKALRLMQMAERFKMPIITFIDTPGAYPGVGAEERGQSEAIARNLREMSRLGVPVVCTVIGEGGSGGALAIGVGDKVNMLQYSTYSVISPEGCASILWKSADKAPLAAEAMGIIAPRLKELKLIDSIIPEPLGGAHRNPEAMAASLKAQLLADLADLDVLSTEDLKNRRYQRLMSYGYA

SMILES: Cl.N [NH4Cl]
- effect of salt on E. coli ACCase activity [1]: significantly inhibited
- decrease of the activity of the ACCase enzyme relative to control [1]: approximately 80%
- effect of salt on H. elongata ACCase activity [2]: less affected

SMILES: [Cl-].[Na+] [NaCl]
- decrease of the activity of the ACCase enzyme relative to control [1]: approximately 80%

SMILES: N.O=C(O)CCO [NH4-3-HP]
- effect of salt on E. coli ACCase activity [1]: significantly inhibited
- effect of salt on H. elongata ACCase activity [2]: less affected
